Data on one compound can be found in patent US20240197700A1, “Methods and Compositions for Treating Lysosomal Storage Disorders” (Sanford Health, priority 2021, published 2024).

Type in all cases: in vivo, mouse
Test [1] has as its system Cln2^R207X mice. The experiment in a line: Tremor index score on force plate actimeter in Cln2^R207X mice. Particulars: for tremor index score: 10 weeks of age. How it is done: (§1) Specific experimental details are included in figure legends. In general, after collection and preparation, MEFs and PNCs were dosed with vehicle or AF38469 (40 nM, 400 nM. or 4 μM) on DIV3 and DIV5. On DIV7, cells were treated with the following dyes: Hoechst 33342 (1:1000 dilution), LysoTrackerT™ Red DND-99 (1:10,000 dilution), fixed, and imaged. Mice were given vehicle or AF38469 (78.125 μg/ml, 3.125 μg/ml, 0.3125 μg/ml or 0.03125 μg/ml equating approximately to 250 μg/mouse/day, 10 μg/mouse/day, 1 μg/mouse/day, and […], respectively, given a mouse's daily water intake of approximately 3.2 ml per day) in drinking water beginning at wean. Body weight was measured bi-weekly, and a force actimeter test was performed on Cln2^R207X mice at 10 weeks of age. Body weight was measured every month for Cln3^Δex7/8 mice. At 11 and 16 weeks of age, respectively, Cln2^R207X and Cln3^Δex7/8 mice along with age matched wild type control mice were CO2 euthanized and intracardially perfused with PBS. Brains were collected and placed on a 1 mm sagittal brain block. Brains were sliced at the midline and 3 mm right of the midline. One hemisphere was fixed in 4% PFA and sectioned at 50 microns on a vibratome. Immunohistochemistry was performed on free-floating sections. For mitochondrial ATP synthase subunit C (SubC), glial fibrillary acidic protein (GFAP), and cluster of differentiation 68 (CD68) immunolabeling, primary antibodies included anti-SubC (Abcam, ab181243; 1:1000), anti-GFAP (Dako, Z0334; 1:5000), anti-CD68 (AbD Serotec, MCA1957; 1:2000), and secondary antibodies included anti-rabbit biotinylated (Vector Labs, BA-1000 1:1000) and anti-rat (Vector Labs, BA-9400 1:1000). Coverslips were mounted on slides using antifade-mounting media and were stored in the dark before imaging. Sections were imaged and analyzed using an Aperio Digital Pathology Slide Scanner (AT2) and associated software. Images were extracted from S1BF of the somatosensory cortex and the VPM/VPL of the thalamus, with multiple images taken of multiple tissues from each animal.
Short-term chronic treatment with AF38469 reduced tremor phenotype in Cln2^R207X mice. Beginning at wean, wild type and Cln2^R207X mice were treated with vehicle (0.2408% DMSO) or AF38469 (0.03125 μg/ml, 0.3125 μg/ml, 3.125 μg/ml, 78.125 μg/ml) continuously through the drinking water. At 10 weeks of age, wild type and Cln2^R207X mice were evaluated on the force plate actimeter. Evaluation of tremors with the force plate actimeter software produces a tremor index score based on the tremor frequency 5-10 Hz (A), 10-15 Hz (B), 15-20 Hz (C) and 20-25 Hz (D). Data was analyzed with Graphpad. Two-way ANOVA. Mean±S.E.M. Dunnett's multiple comparisons test. *p<0.05, **p<0.01, ***p<0.001, ****p<0.0001. […]

For test [2], the system named is Cln2^R207X mice. In words: SubC burden (immunohistochemistry) in brain of Cln2^R207X mice. The following applies: for Subunit C burden: somatosensory cortex. On the procedure: as §1
Short-term chronic treatment with AF38469 reduces storage material burden in Cln2^R207X and Cln3^Δex7/8 mice. Beginning at wean, wild type and Cln2^R207X mice were treated with vehicle (0.2408% DMSO) or AF38469 (0.03125 μg/ml, 0.3125 μg/ml, 3.125 μg/ml, 78.125 μg/ml) continuously through the drinking water continuing until sacrifice at 11 weeks. […] Sections were imaged and analyzed using an Aperio Digital Pathology Slide Scanner (AT2) and associated software. […] Percent area of immunoreactivity were quantified using a threshold analysis in ImageJ™. […]

Test [3] relates to Cln2^R207X mice. In words: Astroglial activation (GFAP) in brain of Cln2^R207X mice. On the procedure: as §1
Short-term chronic treatment with AF38469 impacts glial activation in Cln2^R207X mice. Beginning at wean, wild type and Cln2^R207X mice were treated with vehicle (0.2408% DMSO) or AF38469 (0.03125 μg/ml, 0.3125 μg/ml, 3.125 μg/ml, 78.125 μg/ml) continuously through the drinking water continuing until sacrifice at 11 weeks. Upon sacrifice, one hemisphere of brain was sectioned at 50 microns on a vibratome; DAB staining immunohistochemistry was then performed using anti-GFAP (Dako, Z0334; 1:5000), anti-CD68 (AbD Serotec, MCA1957; 1:2000), anti-rabbit biotinylated (Vector Labs, BA-1000 1:1000), and anti-rat (Vector Labs, BA-9400 1:1000). Sections were imaged and analyzed using an Aperio Digital Pathology Slide Scanner (AT2) and associated software. Images were extracted from S1BF of the somatosensory cortex and the VPM/VPL of the thalamus. Percent area of immunoreactivity were quantified using a threshold analysis in ImageJ™. Statistical analyses were performed using GraphPad Prism™ (v8.4.3; San Diego, CA). […] Increasing concentrations of AF38469 and corresponding genotypes are shown along the x-axis. Nested one-way ANOVA. Mean±S.E.M. Dunnett's multiple comparisons test compared to the mutant vehicle treated group. *p<0.05, **p<0.01, ***p<0.001, ****p<0.0001. Reactive gliosis including activated microglia and reactive astrocytes is one of the histopathologies associated with neurodegenerative diseases such as NCLs.

“Also recorded” adds a separate entry of the source.

In the case of `Cc1cccc(NC(=O)c2ccc(C(F)(F)F)cc2C(=O)O)n1` [AF38469, 2-((6-methylpyridin-2-yl)carbamoyl)-5-(trifluoromethyl)benzoic acid], the tremor index score entry is on record as “had no impact” in test [1] (5-10 Hz, vs vehicle Cln2^R207X); “significantly reduced” in test [1] (10-15 Hz, 0.3125 μg/ml); “significantly reduced” in test [1] (15-20 Hz and 20-25 Hz, 0.03125 μg/ml, 0.3125 μg/ml, 3.125 μg/ml). Further, in test [1] (lower concentrations, summary statement), the tremor index scores result was “significantly reduce”. Further, the “Subunit C burden” value in test [2] (0.03125 μg/ml, 0.3125 μg/ml in drinking water, 11 weeks) is recorded as “significantly decreased”; in test [2] (78.125 μg/ml in drinking water, 11 weeks), “significantly decreased”. For the same compound, in test [2] (3.125 μg/ml, 78.125 μg/ml in drinking water, VPM/VPL of the thalamus, 11 weeks, vs vehicle Cln2^R207X), the SubC burden result was “did not have an impact”. Also, the SubC accumulation result in test [2] (overall statement, short term treatment, Cln2^R207X) was “reduces”. In addition, the “astroglial activation (GFAP)” value is given as “did not impact” in test [3] (3.125 μg/ml, 78.125 μg/ml, VPM/VPL of the thalamus); “significantly increased” in test [3] (3.125 μg/ml, somatosensory cortex); “had no impact” in test [3] (78.125 μg/ml, somatosensory cortex); “had no significant impact; also recorded: did not significantly impact” in test [3] (lower doses 0.03125 μg/ml, 0.3125 μg/ml). Further, the GFAP reactivity entry in test [3] (higher doses, summary statement) is reported as “increased or had no impact”.
